Measurements published in US8470871B2, “Ligands that modulate RAR receptors” (Galderma Research & Development, priority 2004, dated 2013).
pKd: −log10 of the molar value. Counter-ions that a name gives are not always drawn.

What was measured:
RARalpha = molecular target: T1, RARalpha (Homo sapiens, UniProt P10276); test: Transactivation test (Kdapp), RARalpha; format: cell-based; conditions: HeLa stable transfectants, luciferase reporter, crossed curves against reference agonist, Schild regression
T1 sequence (P10276 183-417 limits assumed): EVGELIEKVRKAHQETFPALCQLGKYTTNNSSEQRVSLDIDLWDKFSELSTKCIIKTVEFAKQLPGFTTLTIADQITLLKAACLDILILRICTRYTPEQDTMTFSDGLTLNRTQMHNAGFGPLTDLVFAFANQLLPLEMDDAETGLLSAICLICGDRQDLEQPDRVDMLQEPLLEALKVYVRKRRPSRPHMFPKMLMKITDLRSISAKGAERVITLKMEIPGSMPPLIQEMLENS
Procedure: (§1) The activation of receptors with an agonist (activator) in HeLa cells leads to the expression of a reporter gene, luciferase, which, in the presence of a substrate, generates light. The activation of the receptors may thus be measured by quantifying the luminescence produced after incubating the cells in the presence of a reference agonist. The inhibitory products displace the agonist from its site, thus preventing activation of the receptor. The activity is measured by quantifying the reduction in light produced. This measurement makes it possible to determine the inhibitory activity of the compounds according to the invention.
(§2) In this study, a constant is determined which is the affinity of the molecule for the receptor. Since this value can fluctuate depending on the basal activity and the expression of the receptor, it is referred to as the Kd apparent (KdApp).
(§3) To determine this constant, “crossed curves” of the test product against a reference agonist, 4-[2-(5,5,8,8-tetramethyl-5,6,7,8-tetrahydro-2-naphthyl)propenyl]benzoic acid, are performed in 96-well plates. The test product is used at 10 concentrations and the reference agonist at 7 concentrations. In each well, the cells are in contact with a concentration of the test product and a concentration of the reference agonist, 4-[2-(5,5,8,8-tetramethyl-5,6,7,8-tetrahydro-2-naphthyl)propenyl]benzoic acid. Measurements are also taken for the total agonist (4-[2-(5,5,8,8-tetramethyl-5,6,7,8-tetrahydro-2-naphthyl)propenyl]benzoic acid) and inverse agonist, 4-{(E)-3-[4-(4-tert-butylphenyl)-5,5,8,8-tetramethyl-5,6,7,8-tetrahydro-2-naphthyl]-3-oxopropenyl}benzoic acid, controls.
(§4) The HeLa cell lines used are stable transfectants containing the plasmids ERE-βGlob-Luc-SV-Neo (reporter gene) and RAR (α, β, γ) ER-DBD-puro. These cells are inoculated into 96-well plates at a rate of 10,000 cells per well in 100 μl of DMEM medium without phenol red, and supplemented with 10% defatted calf serum. The plates are then incubated at 37° C. and 7% CO2 for 4 hours.
(§5) The plates are then incubated for 18 hours at 37° C. and 7% CO2.
(§6) The culture medium is removed by turning over and 100 μl of a 1:1 PBS/luciferine mixture is added to each well. After 5 minutes, the plates are read using the luminescence reader.

RARbeta = molecular target: T2, RARbeta (Homo sapiens, UniProt P10826); test: Transactivation test (Kdapp), RARbeta; format: cell-based; conditions: HeLa stable transfectants, luciferase reporter, crossed curves against reference agonist, Schild regression
T2 sequence (P10826 183-417 limits assumed): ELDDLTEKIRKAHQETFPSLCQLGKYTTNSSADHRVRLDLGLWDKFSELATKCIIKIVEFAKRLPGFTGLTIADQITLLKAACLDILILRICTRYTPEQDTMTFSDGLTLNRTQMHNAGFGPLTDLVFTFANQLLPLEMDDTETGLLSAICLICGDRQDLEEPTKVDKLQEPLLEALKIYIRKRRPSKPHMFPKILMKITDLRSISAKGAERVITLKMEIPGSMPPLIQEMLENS
Procedure: as §1, §2, §3, §4, §5, §6

pKd (RARalpha)	pKd (RARbeta)	pKd (RARalpha; hydrochloride)	pKd (RARbeta; hydrochloride)	Structure (SMILES)
7.22	8.10	–	–	CCN(CC)c1ccc(-c2cc(-c3ccc(C(=O)O)cc3)ccc2CCCO)cc1C(C)(C)C [Example 33, 3″-tert-butyl-4″-diethylamino-4′-(3-hydroxypropyl)-[1,1′;3′,1″]terphenyl-4-carboxylic acid]
–	6.60	–	–	CCN(C(C)=O)c1ccc(-c2cc(-c3ccc(C(=O)O)cc3)ccc2CCCNC2CC2)cc1C(C)(C)C [Example 47, 4″-(acetylethylamino)-3″-tert-butyl-4′(3-cyclopropylaminopropyl)[1,1′;3′,1″]terphenyl-4-carboxylic acid]
–	–	7.52	8.70	CCN(CC)c1ccc(-c2cc(-c3ccc(C(=O)O)cc3)ccc2CCCO)cc1C(C)(C)C [Example 52, [3″-tert-butyl-4-carboxy-4′-(3-hydroxypropyl)-[1,1′;3′,1″]terphenyl-4″-yl]diethylamine hydrochloride]
8.10	8.40	–	–	CCNc1ccc(-c2cc(-c3ccc(C(=O)O)cc3)ccc2OCCCO)cc1C(C)(C)C [Example 54, 3″-tert-butyl-4″-ethylamino-4′-(3-hydroxypropoxy)-[1,1′;3′,1″]terphenyl-4-carboxylic acid]

The remaining lines, values behind:

Structure (SMILES)	pKd (RARalpha)	pKd (RARbeta)	pKd (RARalpha; hydrochloride)	pKd (RARbeta; hydrochloride)
CCN(C(C)=O)c1ccc(-c2cc(-c3ccc(C(=O)O)cc3)ccc2OCCCCO)cc1C(C)(C)C [Example 5, 4″-(acetylethylamino)-3″-tert-butyl-4′-(4-hydroxybutoxy)-[1,1′;3′,1″]terphenyl-4-carboxylic acid]	8.10	8.10	–	–
CCc1cc(-c2cc(-c3ccc(C(=O)O)cc3)ccc2OCCO)ccc1N(CC)CC [Example 13, 4″-diethylamino-3″-ethyl-4′-(2-hydroxyethoxy)-[1,1′;3′,1″]terphenyl-4-carboxylic acid]	6.30	8.40	–	–
CCN(CC)c1ccc(-c2cc(-c3ccc(C(=O)O)cc3)ccc2OCCCO)cc1C [Example 17, 4″-diethylamino-4′-(3-hydroxypropoxy)-3″-methyl[1,1′;3′,1″]terphenyl-4-carboxylic acid]	6.60	8.10	–	–
CCN(CC)c1ccc(-c2cc(-c3ccc(C(=O)O)cc3)ccc2CC(O)CO)cc1C(C)(C)C (centres unmarked) [Example 35, 3″-tert-butyl-4″-diethylamino-4′-(2,3-dihydroxypropyl)-[1,1′;3′,1″]terphenyl-4-carboxylic acid]	5.40	6.30	–	–
CCN(C(C)=O)c1ccc(-c2cc(-c3ccc(C(=O)O)cc3)ccc2CCCO)cc1C(C)(C)C [Example 37, 4″-(acetylethylamino)-3″-tert-butyl-4′-(3-hydroxypropyl)-[1,1′;3′,1″]terphenyl-4-carboxylic acid]	6.60	6.92	–	–
